Results published in publication PMC12973313 (Chemical Science, 2026).
Values after ≈ are worked out from the molar mass of the structure shown. Values joined by “and” are separate entries in the source; they are usually repeats but may differ in a detail not shown here. Equal values may be shown once. Read-outs that look alike come from different tables or passages of the source.

What was measured:
S. aureus USA300 = assay: MIC assay; assay type: cell-based; conditions: Staphylococcus aureus
Experimental: Next generation SSAs 3, 5, 7, and 9 were specifically designed to increase the activity of SSAs against both drug susceptible and resistant S. aureus and ovarian cancer cells. […] These strains include: (i) USA300, a common clinically relevant, methicillin resistant strain;[47] […]
(§1) Section S3: Biological methods […]
Preparation of bacterial plates : Sterile TSB agar plates were streaked using the desired […]
(§2) Preparation of inoculum: An initial culture was made up by inoculating TSB (5 mL) with 3 single colonies of the desired bacteria under sterile conditions and incubated at 37 °C overnight. The optical density at 600 nm (OD 600) was adjusted using sterile distilled H 2O (dH2O) to equal ~1 x 10^6 bacteria/mL.
(§3) Preparation of 96 -well microplate : A solution of each compound in H2O/5 % EtOH was made […]
The compound solution (200 […]
µL) was added to and diluted 50:50 down the plate. The bacterial suspension (100 µL) was dispensed into each well under sterile conditions. […]

[1] = Dynamic light scattering, H2O 5% EtOH; assay type: physicochemical; conditions: 5.56 mM, 298 K, after annealing
Text: The size and stability of those self-associated structures present were confirmed through a combination of dynamic light scattering (DLS) and zeta potential measurements respectively (Table 2). […] Therefore, the presence of the alkyl/aromatic R-groups within the amino acid appended SSA are confirmed to increase higher order self-associated aggregate stability.
Table S9 - The peak maxima and polydispersity indices obtained for 1, 3, 5, 7, 9, and 1:1 enantiomeric mixtures of 3 + 5 and 7 + 9 obtained at 5.56 mM in H2O/5 % EtOH. An annealing process was applied in which the samples were heated to approximately 313 K before being cooled down to a measurement temperature of 298 K. The errors given are the standard error of the average.
Compound Repeat Peak maxima (nm) Polydispersity index

E. Faecium NCTC 12204 = assay: MIC assay; assay type: cell-based; conditions: Enterococcus faecium, NCTC12204; lowest concentration with no visible growth
Experimental: as §1
(§4) Preparation of bacterial plates : Sterile TSB agar plates were streaked using the desired bacteria [Staphylococcus aureus (9144, 13616, USA 300 and 1199B ), Enterococcus faecalis (NCTC 775 and 12201 ) and Enterococcus faecium (NCTC 12204)] and incubated at 37 °C […]
as §2, §3
(§5) . The compound solution (200
(§6) […]. The bacterial suspension (100 µL) was dispensed into each well under sterile conditions. The plates were sealed using parafilm and incubated at 37 °C for 20 hours, after which the OD 600 was measured.

E. Faecalis NCTC 12201 = assay: MIC assay; assay type: cell-based; conditions: Enterococcus faecalis, NCTC12201; lowest concentration with no visible growth
Experimental: as §1, §4, §2, §3, §5, §6

[2] = 1H NMR titration, host:guest association; conditions: 1:1 binding isotherm, DMSO-d6 0.5% H2O, 298 K, guest as TBA salt
Text: Here H2PO4^- was used to model the phosphate present in the phospholipid headgroup, while Cl^- was incorporated into these studies as a common biologically relevant anion. […] Summary […] using Bindfit v0.5,1 conducted in DMSO-d6/0.5 % H2O at 298 K. Anionic guest species were supplied as the TBA salt. Data was fitted to both 1:1, 1:2 and 2:1 binding isotherm. […] 94

[3] = Cl-/NO3- antiport assay, chloride ISE; assay type: biochemical; conditions: pH 7.2; for EC50 Cl-/NO3- antiport: 50% chloride efflux after 270 s; for n (Hill coefficient): Hill analysis
Text: Although evidence supports the hypothesis that SSAs are able to act as selective phospholipid membrane coordination and/or disruption agents,[39] to date we have minimal evidence that verifies the role ion transport events may play in the SSA mechanism of biological activity, or the types of transmembrane SSA structures which may be involved in facilitating these events, such as ion channels or membrane pores. Therefore, to confirm the role ion transport may play in the biological activity of SSAs, we explored the ability of SSAs 1, 3, 5, 7, and 9 to mediate ion transport in phospholipid vesicles (Section S17). We initially performed a Cl^−/NO3^− antiport assay.[52] Large unilamellar vesicles composed of 1-palmitoyl-2-oleoyl-sn-glycero-3-phosphocholine (POPC) were prepared containing NaCl (ionic strength = 500 mM) buffered to pH 7.2 with sodium phosphate salts. The vesicles were suspended in NaNO3 (ionic strength = 500 mM) at pH 7.2 (Fig. 4a). On addition of the SSA as a 5 mM DMSO stock solution (which was maintained throughout these experiments to minimise any variation in aggregation state induced by changes in concentration), any resulting chloride efflux was detected using a chloride ion selective electrode (ISE). All of these molecules but compound 1 (Section S17) mediated a modest amount of chloride efflux when added at 10 mol% w.r.t. lipid (Fig. 4b and c)which is surprising given the negative charge of the SSA anion. […] We were unable to observe significant transport activity when these compounds were added as a stock solution dissolved in water (5 mM). […]
Section S3: Biological methods
Preparation of vesicles: A stock solution of 1-palmitoyl-2-oleoyl-sn-glycero-3-phosphocholine (POPC) was prepared by dissolving 1 g of POPC in 35 mL de-acidified CHCl3. The CHCl3 was passed through a column of basic alumina before use. This solution was stored at -20 °C when […]
A lipid film of POPC was prepared by adding 1–4 mL of the above stock solution into a pre-weighed falcon tube and gently removing the CHCl3 under a stream of nitrogen. The lipid film was dried under vacuum overnight. The lipid film was re-hydrated by vortexing with the desired internal buffer solution, then subjected to 9 freeze-thaw cycles. Typically, the lipids were not thawed on the last cycle and were stored at -20 °C for use at a later date.
The lipid was thawed to room temperature and allowed to stand for 30 mins, then extruded 27 times through a 200 nm polycarbonate membrane. The resulting unilamellar vesicles were dialysed against the desired external buffer solution for a minimum of 2 hours.
Transport experiments protocol: The vesicles prepared as described above were diluted to a known volume of 5 mL using the desired external buffer solution. This solution was further diluted into individual 5 mL samples for testing at a final lipid concentration of 1 mM. The transporter was added to the vesicles from a stock solution in DMSO (5 mM) after 30 s in order to initiate the transport and any resulting chloride efflux was monitored using a chloride selective electrode (ISE – Cole Parmer). At the end of the experiment, the vesicles were lysed by the addition of 40 µL Triton-X 100 (10 wt% in H2O). The final electrode reading was taken 2 mins later and used to calibrate 100% chloride efflux. Each experiment was performed 3 […]
Section S17: Ion transport studies
Cl-/NO3- antiport Hill plots – pH 7.2
Internal buffer: 500 mM NaCl buffered to pH 7.2 with 5 mM sodium phosphate salts.
External buffer: 500 mM NaNO3 buffered to pH 7.2 with 5 mM sodium phosphate salts.
Figure S134 - Transport data for the Cl-/NO3- antiport Hill plot experiment with compound 1.
Full Hill analysis was not performed due to the low observed activity of this compound.
(1 picture or pasted object on this page, not shown here)

[4] = USA300, 15 h, total molecular concentration, after 900 min, read-out: MIC USA300
[5] = USA300, lowest concentration with no visible growth, read-out: MIC (mM) S. aureus USA 300

O=C(Nc1ccc(C(F)(F)F)cc1)N[C@@H](Cc1ccccc1)C(=O)O [SSA 7]
MIC (S. aureus USA300; [4]): 0.087 mM (≈ 30.7 µg/mL)
MIC (S. aureus USA300; [5]): 0.087 mM (≈ 30.7 µg/mL)
dH (nm), DLS intensity distribution peak maxima [1]: 166.62 (± 19.14) nm and 167 nm
MIC (E. Faecium NCTC 12204): > 2.78 mM
MIC (E. Faecalis NCTC 12201): > 2.78 mM
Ka / Kass (M-1), guest H2PO4- [2]: 30.27 M⁻¹ and 30 M⁻¹
EC50 Cl-/NO3- antiport [3]: > 15 mol% w.r.t. lipid
n (Hill coefficient) [3]: 1.4

O=C(Nc1ccc(C(F)(F)F)cc1)N[C@H](Cc1ccccc1)C(=O)O [SSA 9]
MIC (S. aureus USA300; [4]): 0.087 mM (≈ 30.7 µg/mL)
MIC (S. aureus USA300; [5]): 0.087 mM (≈ 30.7 µg/mL)
dH (nm), DLS intensity distribution peak maxima [1]: 180.99 (± 53.12) nm and 181 nm
MIC (E. Faecium NCTC 12204): > 2.78 mM
MIC (E. Faecalis NCTC 12201): > 2.78 mM
Ka / Kass (M-1), guest Cl- [2]: No evidence of host: guest complex formation detected
EC50 Cl-/NO3- antiport [3]: > 15 mol% w.r.t. lipid
n (Hill coefficient) [3]: 1.3

O=C(O)CNC(=O)Nc1ccc(C(F)(F)F)cc1 [SSA 1]
MIC (S. aureus USA300; [4]): > 2.78 mM
MIC (S. aureus USA300; [5]): > 2.78 mM
MIC (E. Faecium NCTC 12204): > 2.78 mM
MIC (E. Faecalis NCTC 12201): > 2.78 mM
Ka / Kass (M-1), guest Cl- [2]: 4.33 M⁻¹
Ka / Kass (M-1), guest H2PO4- [2]: 12.59 M⁻¹

CC(C)CC(NC(=O)Nc1ccc(C(F)(F)F)cc1)C(=O)O (stereo not shown) [SSA 3]
MIC (S. aureus USA300; [4]): > 2.78 mM
dH (nm), DLS intensity distribution peak maxima ([1]; listed as 3): 265.65 (± 19.29) nm and 266 nm
MIC (E. Faecium NCTC 12204): > 2.78 mM
MIC (E. Faecalis NCTC 12201): > 2.78 mM
Ka / Kass (M-1), guest Cl- [2]: No evidence of host: guest complex formation detected
Ka / Kass (M-1), guest H2PO4- [2]: No evidence of host: guest complex formation detected
EC50 Cl-/NO3- antiport [3]: > 15 mol% w.r.t. lipid
n (Hill coefficient) ([3]; listed as 3): 1.4

CC(C)CC(NC(=O)Nc1ccc(C(F)(F)F)cc1)C(=O)O (stereo not shown) [SSA 5]
dH (nm), DLS intensity distribution peak maxima ([1]; listed as 5): 174.05 (± 13.00) nm and 174 nm
Ka / Kass (M-1), guest Cl- [2]: No evidence of host: guest complex formation detected
EC50 Cl-/NO3- antiport [3]: > 15 mol% w.r.t. lipid
n (Hill coefficient) ([3]; listed as 5): 1.7
